Reference: patent US20100099845A1, “PROTECTED ENANTIOPURE TRIFLUOROTHREONINES AND METHODS OF MAKING AND USING SAME” (University of Utah Research Foundation, priority 2006, published 2010)

Key:
[1] = literature values of Kovacs, Mant, Hodges 2006; cited from earlier work
[2] = Relative hydrophobicity by reversed-phase HPLC retention time (method of Hodges and coworkers); assay type: physicochemical; settings: for retention time, tR (measure of hydrophobicity): Kromasil C18, 0.2% TFA water/ACN linear gradient 0.25% ACN/min from 55% B, 0.3 mL/min, 25° C., co-injection, FIG. 4; for retention time difference ΔtR relative to allo-D-Thr/allo-L-Thr pair: same reversed-phase HPLC conditions, CF3 vs CH3
Experimental: As fluorination can decrease the hydrophilicity of a molecule [(a) Böhm, H-J.; Banner, D.; Bendels, S.; Kansy, M.; Kuhn, B.; Müller, K.; Obst-Sander, U.; Stahl, M. Chem BioChem. 2004, 5, 637-643. […] 1996, 276, 1049-1057.], the hydrophobicity of Fmoc-tfT (1a and 1b) relative to their non-fluorinated counterparts was determined. The chromatography method developed by Hodges and coworkers [Kovacs, J. M.; Mant, C. T.; Hodges, R. S. Biopolymers (Peptide Science) 2006, 84, 283-297.], who determined the relative hydrophobicity of 23 L-amino acids and their D-enantiomers, was used. As pointed out by Hodges and coworkers [Kovacs, J. M.; Mant, C. T.; Hodges, R. S. Biopolymers (Peptide Science) 2006, 84, 283-297.], a criterion for measuring true hydrophobicity of an amino acid is that the D/L enantiomers should give the same retention time, tR. […] All of the enantiomeric pairs, allo-D-Thr/allo-L-Thr (tR=7.2 min), D-Thr/L-Thr (tR=9.2 min) and allo-D-tfT/allo-L-tfT (tR=11.6 min), co-elute, satisfying the criterion established by Hodges and coworkers. [Kovacs, J. M.; Mant, C. T.; Hodges, R. S. Biopolymers (Peptide Science) 2006, 84, 283-297.] In reversed-phase chromatography, a larger retention time typically indicates a more hydrophobic molecule. The allo-D-tfT/allo-L-tfT pair is more retentive than the allo-D-Thr/allo-L-Thr pair (ΔtR=11.6−7.2=4.2 min). […] [Kovacs, J. M.; Mant, C. T.; Hodges, R. S. Biopolymers (Peptide Science) 2006, 84, 283-297.]
In FIG. 4, all chromatography runs followed exactly the same conditions used by Hodges and coworkers [Zhang, X. G.; Ni, W. J.; van der Donk, W. A. J. Org. Chem. 2005, 70, 6685-6692.]. The HPLC conditions are as follows: column, Kromasil C18 (150 mm×2.1 mm I.D., 5 μm, 100 Å pore size, Higgins Analytical, Inc., CA); mobile phase, A: 0.2% TFA (trifluoroacetic acid) in water, B: 0.2% TFA in ACN (acetonitrile); condition, linear AB gradient (0.25% ACN/min, starting from 55% B); flow rate, 0.3 mL/min; temperature, 25° C. 1a and 1b were purified by silica-gel column chromatography and dissolved in mobile phase B before injection. allo-D-N-Fmoc-O-tert-butyl-Thr and allo-L-N-Fmoc-O-tert-butyl-Thr were from BACHEM California Inc. D-N-Fmoc-O-tert-butyl-Thr and L-N-Fmoc-O-tert-butyl-Thr were from Novabiochem.

Row | Structure (SMILES) | retention time, tR (measure of hydrophobicity) [2] | other results
1 | C[C@H](N)C(=O)O [Ala] |  | retention time difference ΔtR relative to Gly [1]: 2.8 min
2 | N[C@@H](CS)C(=O)O [Cys, cysteine] |  | retention time difference ΔtR relative to Ala [1]: 4.8 min
3 | CC(C)[C@H](N)C(=O)O [Val] |  | retention time difference ΔtR relative to Ala [1]: 10.6 min
4 | CC(C)(C)O[C@@H]([C@@H](NC(=O)OCC1c2ccccc2-c2ccccc21)C(=O)O)C(F)(F)F [allo-D-tfT, (2R,3S)-2-(((9H-fluoren-9-yl)methoxy)carbonylamino)-3-tert-butoxy-4,4,4-trifluorobutanoic acid] | 11.6 min | retention time difference ΔtR relative to allo-D-Thr/allo-L-Thr pair [2]: 4.2 min
5 | C[C@H](OC(C)(C)C)[C@H](NC(=O)OCC1c2ccccc2-c2ccccc21)C(=O)O [allo-L-Thr, (2S,3S)-N-Fmoc-O-tent-butyl-threonine] | 7.2 min | 

The next lines start with results.

Row | retention time, tR (measure of hydrophobicity) [2] | Structure (SMILES) | other results
6 | 9.2 min | C[C@H](OC(C)(C)C)[C@@H](NC(=O)OCC1c2ccccc2-c2ccccc21)C(=O)O [D-Thr, (2R,3S)-N-Fmoc-O-tert-butyl-threonine] | 
7 | 9.2 min | C[C@@H](OC(C)(C)C)[C@H](NC(=O)OCC1c2ccccc2-c2ccccc21)C(=O)O [L-Thr, (2S,3R)-N-Fmoc-O-tent-butyl-threonine] | 
8 | 7.2 min | C[C@@H](OC(C)(C)C)[C@@H](NC(=O)OCC1c2ccccc2-c2ccccc21)C(=O)O [allo-D-Thr, (2R,3R)-N-Fmoc-O-tert-butyl-threonine] | 
9 | 11.6 min | CC(C)(C)O[C@H]([C@H](NC(=O)OCC1c2ccccc2-c2ccccc21)C(=O)O)C(F)(F)F [allo-L-tfT, (2S,3R)-4,4,4-trifluoro-N-Fmoc-O-tert-butyl-threonine] | retention time difference ΔtR relative to allo-D-Thr/allo-L-Thr pair [2]: 4.2 min
